Measurements published in patent publication US20060263453A1, “Methods and compositions for modulating glutamate dehydrogenase” (priority 2004, published 2006).

Columns and labels:
GDH = molecular target: T1, GDH (Bos taurus, UniProt P00366); test: steady state kinetic analysis of reductive amination, NADH or 2-oxoglutarate varied (Lineweaver-Burke plots); format: biochemical, bovine; set-up: Y-intercept (Lineweaver-Burke): unit not given beside the values
T1 construct: purchased Sigma Aldrich Chemical Company (St. Louis, Mo.)
T1 sequence (P00366 58-558): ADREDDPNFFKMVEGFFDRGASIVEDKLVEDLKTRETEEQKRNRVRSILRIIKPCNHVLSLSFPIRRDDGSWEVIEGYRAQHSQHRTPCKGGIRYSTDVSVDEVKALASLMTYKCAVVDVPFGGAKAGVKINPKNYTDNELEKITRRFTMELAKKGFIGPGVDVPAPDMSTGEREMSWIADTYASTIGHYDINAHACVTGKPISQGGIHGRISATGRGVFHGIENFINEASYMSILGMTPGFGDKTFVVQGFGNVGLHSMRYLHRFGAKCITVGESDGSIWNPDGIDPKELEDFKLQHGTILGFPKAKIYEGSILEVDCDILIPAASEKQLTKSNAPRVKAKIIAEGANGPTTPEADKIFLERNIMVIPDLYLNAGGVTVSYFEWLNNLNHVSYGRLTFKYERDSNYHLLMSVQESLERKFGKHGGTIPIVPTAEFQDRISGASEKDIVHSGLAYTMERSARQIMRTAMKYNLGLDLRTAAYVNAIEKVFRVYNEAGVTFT
Procedure: (§1) First, aliquots of GDH were extensively dialyzed against 0.1M sodium phosphate buffer, pH 7.0, which contained 1 mM ethylenediaminetetraacetic acid (EDTA). The enzyme concentrations were adjusted to 1 mg/ml and the amount of enzyme added to the reaction mixture, for kinetic analysis, was adjusted to yield optimal steady state velocity measurements. All solutions were made immediately prior to use. Enzyme assays were performed by monitoring reduced coenzyme absorbance at 340 nm using a Shimadzu UV-1601 spectrophotometer. The reductive amination reactions were performed in 3 mL volumes at pH 7.0 in the presence of 0.1 mM nicotinamide adenine dinucleotide (NADH), 50 mM NH4Cl, and 5 mM 2-oxoglutarate. The rate of NADH oxidation was calculated using an extinction coefficient of 6.22 mM^−1 cm^−1.
In this Example, EGCG was added to a reaction (at a final concentration of 0.0, 0.3, or 0.6 μM), along with various concentrations of NADH or 2-oxoglutarate, to further ascertain how EGCG inhibits the reductive amination reaction catalyzed by GDH. Such kinetic analysis was carried out as described above in Example 1.

rat islets [1] = test: BCH-stimulated insulin secretion and oxygen consumption in perifused islets; format: cell-based, Wistar rat
Procedure: In this Example, the effects of EGCG and EGC on LSIS were measured, while simultaneously monitoring respiration rates. More particularly, the effects of EGCG (20 μM) and EGC (20 μM) on BCH-stimulated insulin secretion were measured. First, 1000 adult male Wistar rat islets were isolated as described above and were cultured on a glass perfusion chamber in 10 mM glucose for 3 days. Next, the islets were perifused in an oxygen consumption measurement apparatus containing BCH, along with 0 μM EGCG and 0 μM EGC, 20 μM EGCG, or 20 μM EGC. The perifusion apparatus used in these Examples consisted of a peristaltic pump, a water bath (37° C.), a gas exchanger (artificial lung: media flowed through the thin-walled silastic tubing loosely coiled in a glass jar that contained 20% O2 and 5% CO2 balanced with N2), and fraction collector. All transfer lines were insulated. After the system was provided with 20 μM EGCG or 20 μM EGC, oxygen partial pressure was recorded every 10 seconds by phosphorescence lifetimes of an oxygen-sensitive porphyrin (palladium-mesotetra; 4-carboxyphenyl porphyrin dendrimer). The dye molecules were excited with pulses at 524 nm from a UV lead and emission was measured at 690 nm. The inflow oxygen tension was measured in the absence of islets in the chamber before and after each experiment. The perifusate was a Krebs buffer (pH 7.4) containing 2.2 mM Ca^2+, 1% bovine serum albumin equilibrated with 20% O2 and 5% CO2 balanced with N2. The flow rate was […] and samples were collected every 2 minutes for insulin measurements by radioimmunoassay. The results are summarized in FIG. 6, and are presented as means±S.E. for 1000 islets from 3 separate experiments for EGCG (and from 1 experiment for EGC). Due to the high density of data, S.E. is only shown in every 20 samples.

[2] = test system: 'antenna-less' form of human GDH; test: kinetic analysis of 'antenna-less' human GDH; format: biochemical; conditions: FIG. 4
Procedure: as §1
To this end, EGCG was tested against five different HI/HA mutant forms of GDH, namely, R265K, R269C, E296A, S448P, and H454Y. In addition, EGCG was tested against human wild type GDH (“WT”), GDH from Tetrahymena thermophilia (“tGDH”) that, like the HI/HA mutant GDH enzymes, is not regulated by GTP, and a human GDH that was missing a certain 48 residue ‘antenna-like’ feature protruding from the top of each of its six subunits that is necessary for ADP, GTP, and Palmitoyl CoA regulation. […]

rat islets [3] = test: glucose stimulated insulin secretion in 120 minute run-down islets; format: cell-based
Procedure: Under brief “run-down” conditions used for the above GSIS analysis, where glucose was removed from the cells for only […], the levels of high-energy metabolites (i.e., GTP and ATP) have not been depleted and these effectively shut down GDH activity. This, in turn, eliminated any effect GDH might have on insulin secretion. Therefore, the effects of EGCG were also tested on […] that had been “run-down” for a longer period of time (120 minutes) prior to glucose stimulation (FIG. 11). Specifically, isolated rat islets were cultured with 10 mM glucose for 3 days and then perifused in the absence of glucose and in the presence of 0 or 20 μM EGCG (or 20 μM EGC) for “run-down” periods of 120 minutes prior to stimulation with a glucose ramp (0 to 25 mM, 0.5 mM/minute). Finally, islets were exposed to 30 mM KCl. The insert highlighted the insulin secretion from time=120 minutes to 140 minutes.

islets = test: [U-14C]-glucose oxidation in islets; format: cell-based, rat; conditions: wide range of EGCG concentrations; 3 mM or 12 mM glucose; FIG. 10
Procedure: In addition, the effect of EGCG on glucose oxidation was measured. More particularly, batches of 100 islets were prepared as described herein and preincubated with glucose-free Krebs-Ringer bicarbonate buffer containing varying concentrations of EGCG (shown in FIG. 10) for 60 minutes. Islets were then incubated with 3 mM or 12 mM glucose, in the presence of the varying concentrations of EGCG, for another 60 minutes, along with 2 mCi [U-^14C]-glucose (NEN-Life Science Products, UK). Production of ^14CO2 was monitored as described above.

[4] = ethanol, DMSO, dimethyl formamide; stored at −20° C.; cited from earlier work
[5] = cited from earlier work
[6] = 2-oxoglutarate varied, [EGCG] 0.3 μM
[7] = 2-oxoglutarate varied, [EGCG] 0.6 μM
[8] = ethanol, DMSO, dimethyl formamide

Compound: O=C(O[C@@H]1Cc2c(O)cc(O)cc2O[C@@H]1c1cc(O)c(O)c(O)c1)c1cc(O)c(O)c(O)c1 [EGCG, (2R,3R)-2-(3,4,5-Trihydroxyphenyl)-3,4-dihydro-1 (2H)-benzopyran-3,5,7-triol 3-(3,4,5-trihydroxybenzoate)]
- Slope (Lineweaver-Burke) (GDH; [6]): 0.039 ± 0.002
- Y-intercept (Lineweaver-Burke) (GDH; [6]): 0.24 ± 0.1
- Slope (Lineweaver-Burke) (GDH; [7]): 0.15 ± 0.02
- Y-intercept (Lineweaver-Burke) (GDH; [7]): 0.097 ± 0.5
- Slope (Lineweaver-Burke) (GDH; NADH varied, [EGCG] 0.3 μM): 0.0026 ± 0.0002
- Y-intercept (Lineweaver-Burke) (GDH; NADH varied, [EGCG] 0.3 μM): 0.15 ± 0.01
- Slope (Lineweaver-Burke) (GDH; NADH varied, [EGCG] 0.6 μM): 0.0040 ± 0.0003
- Y-intercept (Lineweaver-Burke) (GDH; NADH varied, [EGCG] 0.6 μM): 0.2000 ± 0.02
- mode of inhibition (GDH; versus NADH and 2-oxoglutarate): non-competitive inhibition
- effect on LSIS (BCH-induced insulin secretion) (rat islets [1]; 20 μM, FIG. 6A): strongly inhibited
- effect on BCH-induced increase in respiration rates (rat islets [1]; 20 μM, FIG. 6B): inhibited
- effect on oxygen consumption in the absence of BCH (rat islets [1]; data not shown): did not have any significant effect
- inhibition of 'antenna-less' human GDH [2]: did not inhibit
- potentiation of GSIS (rat islets [3]; 20 μM, 120 minute run-down, FIG. 11): potentiates
- effect on KCl-stimulated release of insulin (rat islets [3]; 30 mM KCl): neither EGCG or EGC affected
- effect on glucose oxidation (islets): did not affect
- stability in organic solvents [4]: at least six months
- solubility in organic solvents [5, 8]: at least 20 mg/mL
- soluble in organic solvents [5, 8]: soluble
- solubility in phosphate buffered saline (PBS) ([5]; pH 7.2): at least 25 mg/mL
